Test [1] has as its system KIBRA with novel PKCs (PKCδ, PKCε, PKCη, PKCθ). In words: BiFC assay of KIBRA with novel PKCs in HEK293T cells. It is filed as cell-based, human. How it is done: KIBRA-PKMζ BiFC was performed as previously described (28), using pVen1-FLAG-KIBRA and pVen2-HA-PKMζ, in which PKMζ was cloned between EcoR1 and BamH1 sites. The constructs pVen1 and pVen2 encode the N-terminus (amino acids 1-154) and C-terminus (amino acids 155-238) of the Venus protein, respectively, and the Venus fragments were on the N-terminal of the fusion proteins. pVen2-HA-PKMζ[PKCι/λ-P291Q;F297S] was generated by site-directed mutagenesis using forward-cctggagAagcAAatceggatcccccggtCcctgtccgte and reverse-gacggacaggGaccgggggatccggatTTgctTctccagg primers and the QuickChange II XL Site-Directed Mutagenesis Kit (Agilent Technologies), following manufacturer's instructions. Additional pVen2-HA-PKC isoforms and pVen2-HA-CaMKIIα in the pVen2-HA vector were generated by cloning the N-terminus of the coding sequence of each kinase (table S1) to obtain an in-frame fusion at the C-terminus of the pVen2-HA. Human versions of KIBRA and kinases were used, and all PCR amplified sequences and constructs were verified by DNA sequencing.
HEK293T cells were cultured in Dulbecco's Modified Eagle's Medium supplemented with 10% heat-inactivated fetal bovine serum, 100 U/ml penicillin, […] streptomycin, 2 mM glutamine, and 10 mM HEPES in a T75 tissue culture flask with canted neck and ventilated cap. […]

Test [2] relates to auditory-cued fear/threat memory in PKMζ-null mice. Description: Auditory-cued fear/threat conditioning, infusion into basolateral amygdala, PKMζ-null mice. Type of test: in vivo, mouse. The settings on record: 6 nmol in 0.3 μL into each BLA, tested 1 day post-injection. How it is done: Mice were 8-10 weeks old at the time of cannulation and 9-11 weeks old at the beginning of behavioral experiments. Mice were housed with cage-mates in plastic cages and provided with food and water ad libitum. Mice were maintained on a 12 h light/dark cycle (lights on at 7:00 am) and behavioral experiments began at 9:00 am.
Mice were injected intraperitoneally (1 ml/100 g body weight) with an anesthetic cocktail containing ketamine (10 mg/ml) and xylazine (2 mg/ml). Mice were provided with analgesic treatment prior to surgery (carprofen; 5 mg/ml). Guide cannulae (Plastics One, Roanoke, VA) were implanted bilaterally in the basolateral amygdala (from bregma: AP-1.7 mm; L+/−3.0 mm; DV-4.4 mm) and secured to the skull with three jeweler's screws and dental cement. Antisedan (0.66 ml/100 g body weight of 0.5 mg drug/ml solution) was given via i.p. injection after surgery to reverse the anesthesia.
For 7 days following surgery, mice were handled by freely exploring the experimenter's palm for 2-5 min. Mice were habituated, trained, and tested in the same conditioning box (Coulbourn Habitest, Coulboum Instruments) with differing floors and walls to produce two different contexts (Context A and Context B). […] Freezing behavior (cessation of all movement except breathing) during the tone on Test 1 and Test 2 was scored by an experimenter blind to the conditions. […]

Molecules are shown by their SMILES.

Regarding `O=S(=O)(O)c1cc(O)c2c(S(=O)(=O)O)cc(S(=O)(=O)O)cc2c1` [ζ-stat, 1-naphthol-3,6,8-trisulphonic acid], the “effect on BiFC of KIBRA with novel PKCs” value in test [1] was “has no effect”. The “auditory-cued fear/threat memory retention (% time freezing to tone)” value in test [2] is listed as “not in PKMζ-null mice”.
